Measured values published in patent US5859037A, “Sulfonylurea-glitazone combinations for diabetes” (Warner-Lambert Company, priority 1997, dated 1999).

System: lipid parameters (markers of lipid metabolism)
Experiment: Fasting serum lipid profile in 52-week clinical study
Format: in vivo, patients
Details: for Total Cholesterol, Change From Baseline, Median / Triglycerides, Change From Baseline, Mean / Triglycerides, Change From Baseline, Median / VLDL Cholesterol, Change From Baseline, Mean / VLDL Cholesterol, Change From Baseline, Median / Apo A1, Change From Baseline, Mean / Apo B, Change From Baseline, Mean / Free Fatty Acids, Change From Baseline, Mean / Free Fatty Acids, Change From Baseline, Median / HDL Cholesterol, Change From Baseline, Mean / HDL Cholesterol, Change From Baseline, Median / LDL Cholesterol, Change From Baseline, Mean / LDL Cholesterol, Change From Baseline, Median / LP(a), Change From Baseline, Mean / Total Cholesterol, Change From Baseline, Mean: ITT, Week 52; for LDL adjusted mean increase, difference from glyburide / total cholesterol adjusted mean increase, difference from glyburide: Month 12, p<0.05
Method: After an initial screening visit, patients meeting the inclusion criteria entered a 4-week baseline phase (unblinded) in which they received 12 mg micronized glyburide (6 mg BID).
Secondary efficacy parameters included markers of glycemic homeostasis (insulin and C-peptide) and markers of lipid metabolism (total cholesterol, total triglycerides, HDL, VLDL, LDL (measured), free fatty acids, Lp(a), Apo A1, and Apo B).
Efficacy analysis was performed on 2 patient populations, intent-to-treat and completers. […] Patients withdrawing from the study before Week 52 were included in the analysis using the LOCF procedure; the last measurement on treatment was substituted for the missing Week 52 measurement. The intent-to-treat patient sample was the primary sample for assessing efficacy. Completers comprised patients in the intent-to-treat sample who completed Week 52.
Summary statistics for baseline, follow-up (post-randomization), and change from baseline in secondary efficacy parameters were computed by treatment group and visit. For each patient, the baseline measurements for insulin, C-peptide, blood pressure, total cholesterol, triglycerides, LDL, HDL, VLDL, and free fatty acids were defined as the measurement at Week 0. In order to reduce variability, the baseline Apo A, Apo B, and Lp(a) levels were defined as the average of the respective measurements at Weeks -1 and 1. Similarly, the end-of-treatment Apo A, Apo B, and Lp(a) measurements were defined as the average of the respective measurements at Weeks 48 and 52. Averages from Weeks 20 and 24 were not carried forward for these special lipid parameters.
Fasting serum lipid profiles were determined at baseline and periodically through Week 52. Apo A1, Apo B, and Lp(a) were determined only at baseline, Month 6, and Month 12 as part of a special laboratory panel.

[1] = troglitazone 200 mg, or 200 mg/12 mg in combination
[2] = troglitazone 400 mg, or 400 mg/12 mg in combination
[3] = troglitazone 600 mg, or 600 mg/12 mg in combination

Structure (SMILES): Cc1c(C)c2c(c(C)c1O)CCC(C)(COc1ccc(CC3SC(=O)NC3=O)cc1)O2 (centres unmarked) [Troglitazone]
- Total Cholesterol, Change From Baseline, Median [1]: 21.00 mg/dL
- Triglycerides, Change From Baseline, Mean [1]: -35.77 mg/dL
- Triglycerides, Change From Baseline, Median [1]: 3.50 mg/dL
- VLDL Cholesterol, Change From Baseline, Mean [1]: 3.54 mg/dL
- VLDL Cholesterol, Change From Baseline, Median [1]: 3.50 mg/dL
- Apo A1, Change From Baseline, Mean [2]: -1.5 mg/dL
- Apo B, Change From Baseline, Mean [2]: 3.4 mg/dL
- Free Fatty Acids, Change From Baseline, Mean [2]: -0.17 mEq/L
- Free Fatty Acids, Change From Baseline, Median [2]: -0.12 mEq/L
- HDL Cholesterol, Change From Baseline, Mean [2]: 2.99 mg/dL
- HDL Cholesterol, Change From Baseline, Median [2]: 3.00 mg/dL
- LDL Cholesterol, Change From Baseline, Mean [2]: 12.09 mg/dL
- LDL Cholesterol, Change From Baseline, Median [2]: 11.00 mg/dL
- LP(a), Change From Baseline, Mean [2]: 10.0 mg/dL
- Total Cholesterol, Change From Baseline, Mean [2]: 24.78 mg/dL
- Total Cholesterol, Change From Baseline, Median [2]: 20.00 mg/dL
- Triglycerides, Change From Baseline, Mean [2]: -3.86 mg/dL
- Triglycerides, Change From Baseline, Median [2]: -2.00 mg/dL
- VLDL Cholesterol, Change From Baseline, Mean [2]: 8.48 mg/dL
- VLDL Cholesterol, Change From Baseline, Median [2]: 3.00 mg/dL
- Apo A1, Change From Baseline, Mean [3]: -1.9 mg/dL
- Apo B, Change From Baseline, Mean [3]: 3.1 mg/dL
- Free Fatty Acids, Change From Baseline, Mean [3]: -0.19 mEq/L
- Free Fatty Acids, Change From Baseline, Median [3]: -0.11 mEq/L
- HDL Cholesterol, Change From Baseline, Mean [3]: 4.53 mg/dL
- HDL Cholesterol, Change From Baseline, Median [3]: 3.00 mg/dL
- LDL Cholesterol, Change From Baseline, Mean [3]: 16.21 mg/dL
- LDL Cholesterol, Change From Baseline, Median [3]: 15.00 mg/dL
- LP(a), Change From Baseline, Mean [3]: 9.1 mg/dL
- Total Cholesterol, Change From Baseline, Mean [3]: 25.88 mg/dL
- Total Cholesterol, Change From Baseline, Median [3]: 20.50 mg/dL
- Triglycerides, Change From Baseline, Mean [3]: -9.59 mg/dL
- Triglycerides, Change From Baseline, Median [3]: -24.00 mg/dL
- VLDL Cholesterol, Change From Baseline, Mean [3]: -0.36 mg/dL
- VLDL Cholesterol, Change From Baseline, Median [3]: -3.00 mg/dL
- LDL adjusted mean increase, difference from glyburide (200 mg): 23 mg/dL
- total cholesterol adjusted mean increase, difference from glyburide (200 mg): 25 mg/dL
- total cholesterol adjusted mean increase, difference from glyburide (400 mg): 26 mg/dL
- LDL adjusted mean increase, difference from glyburide (600 mg): 19 mg/dL
- total cholesterol adjusted mean increase, difference from glyburide (600 mg): 28 mg/dL
- atherogenic risk / lipid profile (result in words) (mono- or combination therapy): do not negatively impact atherogenic risk
